The source of these data is US20070275936A1, “Formulations and Treatment Methods” (priority 1998, published 2007).

Holding throughout (format): in vivo
The nature of data set [1]: Pharmacokinetics of BrEA after subcutaneous dose in rabbits. The procedure:
The nonaqueous BrEA formulation of example 1 was administered as a single subcutaneous dose to rabbits. […] The circulating half-life of the drug in the plasma was about twelve hours.
A pharmacokinetic analysis of ^14C BrEA was conducted in New Zealand White rabbits. Twenty μCi of ^14C 16α-bromo-3-beta-hydroxy-5α-[4-^14C]-androstan-17-one (50 mCi/mmole) plus 1 mg/kg unlabeled BrEA was administered to each of three New Zealand White rabbits as a subcutaneous injection in the scapular region using an injection volume of 1 mL/kg. The drug was formulated in 25% polyethylene glycol 300, 12.5% absolute ethanol, 5% benzyl benzoate, and qs with propylene glycol. Blood samples were taken at 0.5, 1, 2, 4, 8, 12, 24 hours for all three animals, and at 48 hours for two of the animals. Twenty-four and 48 hours after administration, one and two animals respectively, were sacrificed, and the following organs/tissues were collected: brain, heart, kidneys, liver, lungs, skeletal muscle, spleen, and injection site muscle and skin. In addition to the organs and tissues, urine and feces were collected as well as the cage wash.
The average percentages of the administered dose in whole blood was calculated by multiplying the concentration of drug in whole blood by the assumed volume of blood in the animals, 200 mL. The amount of drug in the blood reaches a maximum at around 8 hours, and a small amount was still evident at 48 hours.

For data set [2], the system named is P. berghei. The experiment in a line: Survival of P. berghei infected mice given BrEA I.V. or S.C. As to conditions: cyclodextrin formulation, all control animals dead by day 10. As to the method:
In a similar protocol, mice are inoculated with a solution containing 1×10^7 erythrocytes/mL by I.V. injection. Two hours later give drug is delivered by I.V. injection. BrEA or another formula 1 compound is given (0.2 mL I.V. or S.C.) once a day for 4 days. Tail snips are used to obtain blood after the study. Mice infected with P. berghei were used to obtain infected cells. Parasites are harvested from cardiac mouse blood, and uninfected mice are infected using 0.2 ml of blood with 14% parasitaemia per mouse I.V. Two hours later, the first dose of BrEA (100 mg/kg I.V. or S.C.) is delivered to the infected animals. The BrEA formulation was a sterile solution containing 15 mg/mL of BrEA in 45% hydroxypropyl-β-cyclodextrin and 0.9% saline. At 1, 2, 3 and 4 days after the infection of the animals, BrEA (100 mg/kg I.V. or S.C.) is delivered to the infected animals.

For data set [3], the system named is Wistar rats. In words: DNBS induced distal colitis in rats. The procedure:
Groups of 3 male Wistar rats (180±20 grams) fasted for 24 hours before 2,4-dinitrobenzene sulfonic acid (DNBS) or saline challenge were used. Distal colitis was induced by intra-colonic instillation of 0.5 mL of an ethanolic solution of DNBS (30 mg in 0.5 mL of a 30% ethanol in saline solution) after which 2 mL of air was injected through the cannula to ensure that the solution remained in the colon. The volume used was 0.1 mL per injection of 2 and 20 mg/mL of 7-oxodehydroepiandrosterone in a liquid formulation, was administered by subcutaneous injection once a day for 6 days. The formulation contained […] of 7-oxodehydroepiandrosterone in a non-aqueous suspension that contained 2% benzyl alcohol w/v, 0.1% Brij 96 w/v and equal volumes of PEG 300 and propylene glycol. Concentrations of 2 mg/mL and 20 mg/mL were obtained by diluting the […] with vehicle that lacked the active substance.
The first dose was given 30 minutes after DNBS challenge. Sulfasalazine (30 mg/mL in 2% Tween 80 in distilled water) was administered orally (PO) once a day (10 mL/kg/day) for 7 days, the first two doses beginning 24 hours and 2 hours before DNBS challenge. The presence of diarrhea was recorded daily by examining the anal area. Animals were fasted for 24 hours prior to being sacrificed. Animals were sacrificed on day 7 or day 8 and their colons were removed and weighed. Before removal of the colon, signs of adhesion between the colon and other organs were recorded. Also, the presence of ulcerations was noted after weighing of each colon. The “net” change of colon-to-body weight (BW) ratio was normalized relative to saline-challenged baseline group. A 30% decrease in “net” colon-to-body weight ratio was considered significant.
A total of five studies were conducted. Data from the first study are reported in this report. The 7-oxodehydroepiandrosterone at 2 and 20 mg/mL, decreased the net colon-to-body weight ratio by 19 and by 14% relative to vehicle-treated group, respectively. […] The formula 1 compound 3β,7β,17β-trihydroxyandrost-5-ene (AET) was administered by subcutaneous injections of 2 and 20 mg/day for 5 or 6 days, with the first dose injected 30 minutes post-DNBS challenge. The AET formulation was the same as the 7-oxodehydroepiandrosterone formulation, except that AET replaced 7-oxodehydroepiandrosterone. AET decreased the net colon-to-body weight ratio by 15% and 21% relative to controls (see the table below). Animals treated with AET (20 mg/kg) had no diarrhea. […] The same formulations containing BrEA hemihydrate (100 mg/mL) or dehydroepiandrosterone (20 mg/mL) decreased the net colon-to-body weight ratio by 21 and 3%, respectively relative to controls.

Where [4] appears, read: Animal 201, 24 hours, 1 mg/kg s.c.
Setting [5] is: Animal 301, 48 hours, 1 mg/kg s.c.
Setting [6] is: Animal 301, 48 hours, sample wt. 6 g.
The mark [7] stands for this setting: Animal 302, 48 hours, 1 mg/kg s.c.

The structures appear in SMILES notation. Entries after “also recorded” stand apart in the source; their conditions may differ.

As to `C[C@]12CC[C@H](O)C[C@@H]1CC[C@@H]1[C@@H]2CC[C@]2(C)C(=O)[C@H](Br)C[C@@H]12` [BrEA, 16α-bromo-3β-hydroxy-5α-androstane-17-one], the “Percentage of Drug in Organs: Brain” value in data set [1] (setting [4]) was found to be 0.005%; in data set [1] (setting [5]), 0.002%; in data set [1] (setting [7]), 0%. In addition, the “Percentage of Drug in Organs: Heart” value in data set [1] (setting [4]) is listed as 0.008%; in data set [1] (setting [5]), 0.003%; in data set [1] (setting [7]), 0.002%. In addition, the results for the “Percentage of Drug in Organs: Kidneys” value in data set [1] (setting [4]), in data set [1] (setting [5]) and in data set [1] (setting [7]) were 0.155%, 0.055% and 0.050%, respectively. Further, the “Percentage of Drug in Organs: Liver” value in data set [1] (setting [4]) was 0.76%; in data set [1] (setting [5]), 0.145%; in data set [1] (setting [7]), 0.125%. Also, the entries for the “Percentage of Drug in Organs: Lungs” value in data set [1] (setting [4]), in data set [1] (setting [5]) and in data set [1] (setting [7]) were 0.029%, 0.019% and 0.011%, respectively. Also, the “Percentage of Drug in Organs: Spleen” value in data set [1] (setting [4]) worked out at 0.002%; in data set [1] (setting [5]), 0%; in data set [1] (setting [7]) it was 0%. Moreover, the “Percentage of Drug in Organs: Skeletal muscle” value was determined as 0.002% in data set [1] (Animal 201, 24 hours, sample wt. 3.8 g); 0% in data set [1] (setting [6]); 0% in data set [1] (Animal 302, 48 hours, sample wt. 5 g). The “Percentage of Drug in Organs: Skin” value is 0.008% in data set [1] (Animal 201, 24 hours, sample wt. 8 g); 0.002% in data set [1] (setting [6]); 0.004% in data set [1] (Animal 302, 48 hours, sample wt. 9 g). The “time of maximum amount of drug in whole blood” value in data set [1] (rabbits, 1 mg/kg s.c.) is given as “around 8 hours”. Also, the “drug in the liver” value in data set [1] (rabbits, 1 mg/kg s.c., 24 hours) was “approximately 0.8 % of the injected dose”; in data set [1] (rabbits, 1 mg/kg s.c., 48 hours) it was ~0.12 % of the injected dose. For the same molecule, in data set [1] (rabbits, 1 mg/kg s.c., average printed after the 48 hours value), the “drug in the liver, average” value is listed as 0.13%. For the same molecule, the accumulation in organs result in data set [1] (rabbits, s.c. dose) was “did not accumulate to a significant extent in any major organ; also recorded: did not accumulate to a significant degree in any of the organs”. The route of excretion entry in data set [1] (rabbits, s.c. dose) is on record as “primarily excreted in the urine”. The “circulating half-life of the drug in the plasma” value in data set [1] (rabbits, single s.c. dose) was “about twelve”. Moreover, in data set [1] (rabbits, single s.c. dose, at eight to twelve hours post administration), the “maximum concentration in the plasma” value is given as “about 1.2 % of the injected dose”. Moreover, the “drug left the injection site” value in data set [1] (rabbits, single subcutaneous dose, formulation of example 1, within 24 hours) is on record as “More than 90%”. Further, the entries for the “survival of infected mice” value in data set [2] (BrEA 100 mg/kg I.V. daily) and in data set [2] (BrEA 100 mg/kg S.C. daily) were “No deaths occurred in the group receiving I.V. BrEA at day 30” and “dead by Day 11”, respectively.
Turning to `C[C@]12CC[C@H](O)CC1=CC[C@@H]1[C@@H]2CC[C@]2(C)C(=O)CC[C@@H]12` [DHEA, dehydroepiandrosterone, reference compound], the “animals with severe acute inflammation” value in data set [3] (7 days after DNBS challenge, 3 of 10 in immunosteroid vehicle controls) was found to be 10 animals. Moreover, the “animals with moderate acute inflammation” value in data set [3] (7 days after DNBS challenge, 5 of 10 in immunosteroid vehicle controls) came to 0 animals. The “animals with severe chronic inflammation” value in data set [3] (14 days after DNBS challenge, 8 of 10 in immunosteroid vehicle controls) is recorded as 3 animals. Also, the “decrease of net colon-to-body weight ratio relative to vehicle/controls” value in data set [3] (DNBS rats, 20 mg/mL formulation s.c.) is 3%. In addition, the “animals with severe ulceration” value in data set [3] (day 7 (acute inflammation) after DNBS challenge, vehicle control 8 of 10) was 10 of 10; in data set [3] (day 14 (chronic inflammation) after DNBS challenge, vehicle controls 5 of 10) it was 0 of 10.
